The assay has as its system hypoxia-induced VEGF production in HeLa cells. Description: cells. The class given is cell-based, human. Particulars: Homo sapiens, HeLa.
The term EC50 denotes the concentration at which the effect is half-maximal. A low value points to greater potency. `COc1ccc(C2c3[nH]c4ccc(Cl)cc4c3CCN2C(=O)C(=O)Nc2ccc(C#N)cc2)cc1` (centres unmarked) [Compound 1716] came in with a 50% effective concentration (EC50) of 200 to 1000 nM.
In turn, `COc1ccc(C2c3[nH]c4ccc(Cl)cc4c3CCN2C(=O)C(=O)OCC2CCC2)cc1` (centres unmarked) [Compound 1718] displayed an EC50 of 8 to 40 nM.
As for `N=C1SCCN1CCCOc1ccc(C2c3[nH]c4ccc(Cl)cc4c3CCN2C(=O)OCCF)cc1` (centres unmarked) [Compound 1432], the EC50 lay within 8 to 40 nM.
As to `CCOC(=O)N1CCc2c([nH]c3ccc(Cl)cc23)C1c1ccc(OCCNc2ncncn2)cc1` (centres unmarked) [Compound 1433], the EC50 was below 8 nM.
For `C=CCOC(=O)N1CCc2c([nH]c3ccc(Cl)cc23)C1c1ccc(OCCCN2CCN(C)CC2)cc1` (centres unmarked) [Compound 1072] the value was below 8 nM; for `CC(C)(C)COC(=O)N1CCc2c([nH]c3ccc(Cl)cc23)C1c1ccc(OCC[C@H]2COC(C)(C)O2)cc1` (some centres unmarked) [Compound 1167], below 8 nM; for `CCCCOC(=O)N1CCc2c([nH]c3ccc(Cl)cc23)C1c1ccc(OCC2OCCO2)cc1` (centres unmarked) [Compound 1035], below 8 nM.
For `CCOC(=O)N1CCc2c([nH]c3ccc(Cl)cc23)C1c1ccc(OCC(N)=O)cc1` (centres unmarked) [Compound 1210] the value was 8 to 40 nM; for `C[Si](C)(C)CCS(=O)(=O)N1CCC(Oc2ccc(C3c4[nH]c5ccc(Cl)cc5c4CCN3C(=O)Oc3ccc(Cl)cc3)cc2)CC1` (centres unmarked) [Compound 1581], below 8 nM; for `O=C(C1CC1)N1CCc2c([nH]c3ccc(Cl)cc23)C1c1ccc(OCCCn2cncn2)cc1` (centres unmarked) [Compound 1142], 8 to 40 nM.
On to `CC#CCOC(=O)N1CCc2c([nH]c3cc(Br)ccc23)C1c1ccc(OC(F)F)cc1` (centres unmarked) [Compound 1445], for which the EC50 was in the range of 40 to 200 nM.
For `CCOC(=O)N1CCc2c([nH]c3ccc(Cl)cc23)[C@@H]1c1ccc(OCC2COC(C)(C)OC2)cc1` [Compound 1206] the value was below 8 nM; for `COC(=O)N1CCc2c([nH]c3c(C)cccc23)C1c1ccc(OC)cc1` (centres unmarked) [Compound 1431], above 1000 nM.
For `COc1ccc(C2c3[nH]c4ccc(S(C)(=O)=O)cc4c3CCN2C(=O)OC(C)(C)C)cc1` (centres unmarked) [Compound 1502] the value was above 1000 nM.
`CC(C)COC(=O)N1CCc2c([nH]c3ccc(Cl)cc23)C1c1ccc(OCCNc2ncncn2)cc1` (centres unmarked) [Compound 1436] yielded a half-maximal effective concentration (EC50) below 8 nM.
For `CCC(CO)(CO)COc1ccc([C@H]2c3[nH]c4ccc(Cl)cc4c3CCN2C(=O)OCC2CCC2)cc1` [Compound 1385], the EC50 was below 8 nM.
The result for `COc1ccc(C2c3[nH]c4ccc(Cl)cc4c3CCN2C(=O)C(=O)Oc2ccc(C)cc2)cc1` (centres unmarked) [Compound 1721] reads above 1000 nM; that for `CC#CCOC(=O)N1CCc2c([nH]c3ccc(Cl)cc23)[C@@H]1c1ccc(OC2CCOCC2)cc1` [Compound 1603], below 8 nM; that for `CC(C)COC(=O)N1CCc2c([nH]c3ccc(Cl)cc23)C1c1ccc(OCCn2cc(C#N)c(N)n2)cc1` (centres unmarked) [Compound 1408], below 8 nM.
Compound `CC(C)OC(=O)N1CCc2c([nH]c3ccc(Cl)cc23)[C@@H]1c1ccc(OCC2(CO)COCOC2)cc1` [Compound 1360] yielded an EC50 of 8 to 40 nM.
Compound `COc1ccc(C2c3[nH]c4ccc(Cl)cc4c3CCN2C(=O)C(=O)Nc2ccc(C)cc2)cc1` (centres unmarked) [Compound 1712] gave an EC50 of 8 to 40 nM.
In the case of `CCOC(=O)N1CCc2c([nH]c3ccc(Cl)cc23)C1c1ccc(OCC[C@H](O)CO)cc1` (some centres unmarked) [Compound 1173], the EC50 was below 8 nM.
In the case of `CCOC(=O)C(=O)N1CCc2c([nH]c3ccc(Cl)cc23)C1c1ccc(OC)cc1` (centres unmarked) [Compound 1334], the EC50 lay in the range of 40 to 200 nM.
The result for `CCOC(=O)N1CCc2c([nH]c3ccc(Cl)cc23)[C@@H]1c1ccc(Oc2nc(C)cnc2C)cc1` [Compound 1653] reads below 8 nM; that for `COc1ccc(C2c3[nH]c4cccc(Br)c4c3CCN2C(=O)Oc2ccc(Cl)cc2)cc1` (centres unmarked) [Compound 1525], 40 to 200 nM; that for `CC#CCOC(=O)N1CCc2c([nH]c3ccc(Cl)cc23)[C@@H]1c1ccc(OC2CCN(C(=O)OCCN3CCOCC3)CC2)cc1` [Compound 1680], below 8 nM.
As to `COc1cc(C2c3[nH]c4ccc(Cl)cc4c3CCN2C(=O)Oc2ccc(F)cc2)ccc1OCCCn1nccn1` (centres unmarked) [Compound 1148], the EC50 is 8 to 40 nM.
In the case of `N#CCOc1ccc(C2c3[nH]c4ccc(Cl)cc4c3CCN2C(=O)Oc2ccc(F)cc2)cc1` (centres unmarked) [Compound 1548], the half-maximal effective concentration (EC50) fell in the range of 8 to 40 nM.
`O=C(Oc1ccc(Cl)cc1)N1CCc2c([nH]c3ccc(Cl)cc23)C1c1ccc(OCC2OCCO2)cc1` (centres unmarked) [Compound 1053]: the EC50 is below 8 nM.
`COc1ccc(C(=O)N2CCc3c([nH]c4ccc(Cl)cc34)C2c2ccc(OCCCn3cncn3)cc2)cc1` (centres unmarked) [Compound 1191] came in with an EC50 of 40 to 200 nM.
In the case of `CCOC(=O)N1CCc2c([nH]c3ccc(Br)cc23)C1c1ccc(OCC[C@H](O)CO)cc1` (some centres unmarked) [Compound 1345], the half-maximal effective concentration (EC50) is below 8 nM.
Consider `CCOC(=O)N1CCc2c([nH]c3ccc(Cl)cc23)[C@@H]1c1ccc(OCCC(O)CNC(=O)OC)cc1` (some centres unmarked) [Compound 1619], for which the half-maximal effective concentration (EC50) was below 8 nM.
The result for `CC#CCOC(=O)N1CCc2c([nH]c3ccc(Cl)cc23)[C@@H]1c1ccc(OC2CCN(c3ncccn3)CC2)cc1` [Compound 1678] reads below 8 nM.
On to `COc1cc(C2c3[nH]c4ccc(Cl)cc4c3CCN2C(=O)Oc2ccc(C)cc2)ccc1OCCCN1CCOCC1` (centres unmarked) [Compound 1132], for which the half-maximal effective concentration (EC50) was 8 to 40 nM.
With `COC(=O)N1CCc2c([nH]c3ccc(Cl)cc23)C1c1ccc(OCC2CCCCN2C)cc1` (centres unmarked) [Compound 1010], the EC50 was in the range of 40 to 200 nM.
The result for `[H]/N=c1\scnn1CCOc1ccc(C2c3[nH]c4ccc(Cl)cc4c3CCN2C(=O)OCC(C)C)cc1` (centres unmarked) [Compound 1407] reads below 8 nM; that for `CC(C)COC(=O)N1CCc2c([nH]c3ccc(Cl)cc23)C1c1ccc(OCCCO)cc1` (centres unmarked) [Compound 1061], below 8 nM; that for `COc1ccc(C2c3[nH]c4cccc(Cl)c4c3CCN2C(=O)Oc2ccc(F)cc2)cc1` (centres unmarked) [Compound 1533], 40 to 200 nM.
On to `COc1ccc(C2c3[nH]c4cccc(Br)c4c3CCN2C(=O)OCCF)cc1` (centres unmarked) [Compound 1522], for which the EC50 was 200 to 1000 nM.
Consider `O=C(Oc1ccc(F)cc1)N1CCc2c([nH]c3ccc(Cl)cc23)C1c1ccc(OCCCn2nccn2)cc1` (centres unmarked) [Compound 1017], for which the concentration giving a half-maximal response (EC50) was below 8 nM.
The result for `CN1CCN(CCCOc2ccc(C3c4[nH]c5ccc(Cl)cc5c4CCN3C(=O)Oc3ccccc3)cc2)CC1` (centres unmarked) [Compound 1076] reads 40 to 200 nM.
`COc1ccc([C@H]2C3Nc4ccc(Cl)cc4C3CCN2C(=O)OC2CCCC2)cc1` (some centres unmarked) [Compound 1298] returned an EC50 below 8 nM.
Compound `CCOC(=O)N1CCc2c([nH]c3ccc(Cl)cc23)C1c1ccc(OCCn2cc(C#N)c(N)n2)cc1` (centres unmarked) [Compound 1401] had an EC50 of 8 to 40 nM.
The result for `COc1ccc(C2c3[nH]c4ccc(S(C)(=O)=O)cc4c3CCN2C(=O)Oc2ccc(Cl)cc2)cc1` (centres unmarked) [Compound 1497] reads above 1000 nM.
`COc1ccc(C2c3[nH]c4ccc(Cl)cc4c3CCN2C(=O)C(=O)Oc2ccc(Cl)cc2)cc1` (centres unmarked) [Compound 1720]: the EC50 was above 1000 nM.
For `O=C(Oc1ccc(Cl)cc1)N1CCc2c([nH]c3ccc(Cl)cc23)C1c1ccc(OCCCNCCO)cc1` (centres unmarked) [Compound 1183] the value was below 8 nM; for `COc1ccc(C2c3[nH]c4c(C)cccc4c3CCN2C(=O)Oc2ccc(C)cc2)cc1` (centres unmarked) [Compound 1426], above 1000 nM.
In the case of `CCOC(=O)N1CCc2c([nH]c3ccc(Cl)cc23)[C@@H]1c1ccc(OCC2(CO)COCOC2)cc1` [Compound 1359], the 50% effective concentration (EC50) is 8 to 40 nM.
The result for `CC1(COc2ccc([C@H]3c4[nH]c5ccc(Cl)cc5c4CCN3C(=O)OCC3CCC3)cc2)COC(C)(C)OC1` [Compound 1318] reads below 8 nM; that for `CCOC(=O)N1CCc2c([nH]c3ccc(Cl)cc23)C1c1ccc(OCCn2nc(N)cc2C)cc1` (centres unmarked) [Compound 1399], below 8 nM.
In turn, `COc1ccc(C2NCCc3c2[nH]c2ccc([S+](C)[O-])cc32)cc1` (centres unmarked) [Compound 1495] registered an EC50 above 1000 nM.
`COc1ccc(OC(=O)N2CCc3c([nH]c4cc(Cl)ccc34)C2c2ccc(OC)cc2)cc1` (centres unmarked) [Compound 1455]: the EC50 is above 1000 nM.
Regarding `O=C(OCC1CCC1)N1CCc2c([nH]c3ccc(Cl)cc23)[C@@H]1c1ccc(OC[C@H](O)CO)cc1` [Compound 1379], the EC50 is below 8 nM.
Turning to `CCOC(=O)N1CCc2c([nH]c3ccc(Cl)cc23)C1c1ccc(OCC(O)CNC(=O)C2CC2)cc1` (centres unmarked) [Compound 1466], the EC50 lay within 8 to 40 nM.
In turn, `CN1C(=O)CN(CCCOc2ccc(C3c4[nH]c5ccc(Cl)cc5c4CCN3C(=O)Oc3ccc(Cl)cc3)cc2)C1=O` (centres unmarked) [Compound 1673] returned an EC50 below 8 nM.
The result for `CCOC(=O)N1CCc2c([nH]c3ccc(Cl)cc23)C1c1ccc(OCC(O)CNS(=O)(=O)CC)cc1` (centres unmarked) [Compound 1473] reads below 8 nM.
In turn, `COc1ccc(OC(=O)N2CCc3c([nH]c4ccc(Cl)cc34)C2c2ccc(OCCCn3nccn3)c(OC)c2)cc1` (centres unmarked) [Compound 1146] had an EC50 of 8 to 40 nM.
For the compound `COc1ccc(C2c3[nH]c4cccc(Br)c4c3CCN2C(=O)Oc2ccccc2Cl)cc1` (centres unmarked) [Compound 1528], the EC50 is above 1000 nM.
Turning to `CN1CCN(C[C@@H](O)CCOc2ccc([C@H]3c4[nH]c5ccc(Cl)cc5c4CCN3c3ncccn3)cc2)CC1` [Compound 1306], the EC50 fell in the range of 8 to 40 nM.
Compound `CCOC(=O)NC[C@H](O)COc1ccc([C@H]2c3[nH]c4ccc(Cl)cc4c3CCN2C(=O)OCC)cc1` [Compound 1651] yielded an EC50 below 8 nM.
For `COc1ccc(C2c3[nH]c4cc(F)ccc4c3CCN2C(=O)Oc2ccc(Cl)cc2)cc1` (centres unmarked) [Compound 1461], the concentration giving a half-maximal response (EC50) was in the range of 200 to 1000 nM.
With `O=C(Oc1ccc(Cl)cc1)N1CCc2c([nH]c3ccc(Cl)cc23)C1c1ccc(OCCCN2CCC(CO)C2)cc1` (centres unmarked) [Compound 1098], the EC50 was in the range of 8 to 40 nM.
For `CC#CCOC(=O)N1CCc2c([nH]c3ccc(Cl)cc23)C1c1ccc(OCC[C@H]2COC(C)(C)O2)cc1` (some centres unmarked) [Compound 1166], the half-maximal effective concentration (EC50) is below 8 nM.
Compound `COCCN1CCN(C(=O)COc2ccc(C3c4[nH]c5ccc(Cl)cc5c4CCN3C(=O)Oc3ccc(OC)cc3)cc2)CC1` (centres unmarked) [Compound 1025] gave a concentration giving a half-maximal response (EC50) of 40 to 200 nM.
For `CCOC(=O)N1CCc2c([nH]c3ccc(Cl)cc23)[C@@H]1c1ccc(OCCCO)cc1` [Compound 1251] the value was below 8 nM.
